# The source made the active and inactive calls. The rule behind the calls is not given here.
# Key:
# [1] = Inhibition of PKC at 0.025 mM after 90 mins by ELISA
# [2] = Inhibition of PKC at 0.2 mM after 90 mins by ELISA
# [3] = system: Rattus norvegicus; assay: Toxicity in rat at 4 mg/kg, po after 28 days; format: organism-based; design: dose 4 mg/kg, route oral; details: in vivo, 672 h
# [4] = system: Mus musculus; assay: Toxicity in mouse at 8 mg/kg, po after 28 days; format: organism-based; design: dose 8 mg/kg, route oral; details: in vivo, 672 h
# [5] = Inhibition of PKC after 90 mins by ELISA
# [6] = Inhibition of PKC at 0.1 mM after 90 mins by ELISA
# [7] = Inhibition of PKC at 0.025 to 0.05 mM after 90 mins by ELISA
inhibition [1],inhibition [2],inhibition [5],inhibition [6],inhibition [7],Compound,Activity [3],Activity [4]
12%,78%,Dose-dependent effect,,,CC/C(=C(\c1ccc(O)cc1)c1ccc(OCCNC)cc1)c1ccccc1 [ENDOXIFEN],Non-toxic,Non-toxic
,25%,,14%,inactive,CC/C(=C(\c1ccccc1)c1ccc(OCCN(C)C)cc1)c1ccccc1,,

# From ChEMBL document CHEMBL1156970, “Endoxifen is a new potent inhibitor of PKC: a potential therapeutic agent for bipolar disorder” (Bioorg Med Chem Lett, 2010)
